{"source": "patent US8846861B2", "about": "“Peptide clearing agents” (Mologic Ltd, priority 2009, dated 2014)", "key": {"ScFV anti CEA-CPG2": {"system": "ScFV anti CEA-CPG2", "assay": "Non-amplified Amplex Red assay for screening of potential CPG2 substrates", "assay_type": "biochemical, Psuedomonas", "conditions": "for substrate potential for CPG2 (in words): Amplex Red fluorescence, CP014 12.5 and 100 μM, FIG. 10 substrate 12.5 μM", "from_the_text": "Non-Amplified Amplex Red Assay for the Screening of Potential CPG2 Substrates\nIt was established that CP014 is a potential inhibitor of CPG2 activity using a spectrophotometric assay. […] The so-called Amplex Red assay can be used to measure to measure L-glutamate in food samples and continuously monitor glutamate oxidase activity. By eliminating an amplification step in the assay procedure, it was possible to screen compounds as substrates for CPG2. In the modified assay, L-glutamic acid that has been cleaved from a substrate of CPG2 is oxidised by glutamate oxidase to produce α-ketoglutarate, ammonia and hydrogen peroxide. The hydrogen peroxide then reacts with 10-acetyl-3,7-dihydroxyphenoxazine (Amplex Red reagent) in a 1:1 stoichiometry in a reaction catalysed by horseradish peroxidise (HRP) to generate the highly fluorescent product, resorufin.\n25 μM and 200 μM solutions of CP014 in assay buffer (0.1 M Tris-HCl buffer at […] containing 0.2 mM zinc chloride), and a 25 μM solution of folic acid in assay buffer were prepared. The Amplex Red reagent mixture was prepared by combining 2.5 μL 10 mM solution of Amplex Red reagent in DMSO, 5 μL HRP solution in assay buffer (100 U/mL), 32 μL L-glutamate oxidase solution in assay buffer (5 U/mL) and 460.5 μL assay buffer solution. ScFV anti CEA-CPG2 fusion protein was diluted appropriately using assay buffer.\nA 50 μL aliquot of CP014 solution or 25 μM folic acid solution and a 50 μL aliquot of the Amplex Red reagent mixture were added to a well of a black microtitre plate. The plate was covered, then incubated at 37° C. for 10 minutes. The cover was removed and a 1 μL aliquot of ScFV anti CEA-CPG2 was added. After brief stirring, the plate was placed in a BMG Fluostar Omega plate reader and the fluorescence intensity was monitored over a 245 second period at 5 second intervals. The excitation filter wavelength was set at 544 nm and the emission filter wavelength was set at 590 nm.\nWhen ScFV anti CEA-CPG2 was diluted to a concentration of approximately 2 U/mL, the slope value that was calculated for the 12.5 μM folic acid control assay was approximately 4.0."}, "[1]": {"biological_target": "CPG2 enzyme activity of ScFV anti CEA-CPG2", "assay": "Spectrophotometric CPG2 enzyme inhibition assay (methotrexate hydrolysis, absorbance at 320 nm)", "assay_type": "biochemical, Psuedomonas", "conditions": "for IC50: methotrexate substrate 60 μM, 37° C., pH 7.3; for inhibition of CPG2 activity (in words): spectrophotometric assay", "protocol": "Enzyme Inhibition Assay Method Used for the Assessment of CP014 as an Inhibitor of CPG2 Activity\nThe effect that CP014 had on CPG2 activity was measured using a spectrophotometric assay. CP014 was dissolved in assay buffer (0.1 M Tris-HCl buffer at pH 7.3 containing 0.2 mM zinc chloride) to give a concentration of 40 mM. Various aliquots of this solution were added to cuvettes and assay buffer was added to adjust the volume of solution in each cuvette to 900 μL. 100 μL aliquots of 0.6 mM methotrexate solution in assay buffer were added to each cuvette to give a methotrexate substrate concentration of 0.06 mM (60 μM). The range of the concentration of CP014 in the cuvettes was 0-400 μM.\nThe substrate solutions in the cuvettes were heated to 37° C. in an oven. The cuvettes were then placed in turn in a spectrophotometer which was maintained at 37° C. using a Peltier. The assays were commenced by adding a 10 μL aliquot of fusion protein (ScFV anti CEA-CPG2) solution or CPG2 solution, followed by brief stirring. The hydrolysis of the methotrexate substrate was monitored by measuring the decrease in absorbance at 320 nm.\nOne unit (1 U) of CPG2 activity is defined as the amount of enzyme which catalyses the hydrolysis of 1 μmol of methotrexate per minute at 37° C. The molar extinction coefficient of methotrexate was taken as 8300 L mol^−1 cm^−1. For each assay a plot of absorbance versus time was created and a straight line was fitted to the data between 0 and 0.2 minutes. The slope of the straight line was then multiplied by minus 12 and the dilution factor of the ScFV anti CEA-CPG2/CPG2 solution to give the enzyme activity in U/mL.\nA variation of the assay was to incubate various amounts of CP014 with ScFV anti CEA-CPG2 or CPG for a period of time at 4° C. prior to CPG2 assay. Following this incubation step, a 10 μL aliquot of each mixture was added to a cuvette that contained a 1 mL aliquot of 0.06 mM methotrexate in assay buffer at 37° C. After stirring the contents of the cuvette, the measurement of the decrease in absorbance and subsequent determination of enzyme activity were carried out as described above.\nThe effectiveness of CP014 in inhibiting CPG2 activity was expressed in terms of its IC50 value, i.e. the half maximal inhibitory concentration. Using GraphPad Prism 5 software, the IC50 value was determined by applying non-linear regression to a plot of enzyme activity versus the logarithm of the CP014 concentration."}, "[2]": {"system": "ScFv anti CEA-CPG2 fusion protein", "assay": "Binding studies using Surface Plasmon Resonance (Biacore), peptide immobilised on CM5 chip", "design": "species or system Psuedomonas", "from_the_text": "Peptide clearing agents of the invention are exemplified herein displaying appropriate kinetics and affinity properties. Such kinetic and affinity properties may be measured using any suitable means. Kinetic and affinity parameters may be derived based upon binding studies using Surface Plasmon Resonance (SPR), which is a well known technique (and commercially available, for example from GE Healthcare—Biacore system). Data obtained using a suitable instrument may be analysed by appropriate software to automatically derive the relevant parameters. An appropriate binding model may be applied by the software to ensure the fit to the curves is as close as possible. A chi2 value of less than 0.2 may be considered an acceptable fit.\nBinding Studies Using Surface Plasmon Resonance (SPR)\nPeptides were coupled to a CM5 chip using EDC/NHS chemistry as recommended by the manufacturer (GE healthcare). Analytes were made up in HBS-P buffer (0.01 M HEPES pH 7.4, 0.15 M NaCl, 0.005% v/v Surfactant P20) and injected over the surface for 180 seconds at 5 μl/min followed by a dissociation time of 300 seconds. Residual binding was removed using two 10 second injections of regeneration buffer (10 mM CHAPS, 1 mM Guanidinium hydrochloride, 2 M NaCl). Response signals and baselines were checked for consistency throughout the experiment and flow rates of 15 and 75 μl/min were tested to confirm minimal effects due to mass transport.\nFIGS. 6a and 6c each show four sensorgrams overlaid. These are the blank-subtracted real time responses from injections of 12.5, 25, 50 and 100 nM ScFVanti-CEA-CPG2 over the chip surface of immobilised CP014 peptide. The data has been fitted using two different algorithms supplied in the BiaCore software (“Biaevaluation”). The first, shown in FIG. 6a, was a 1:1 binding model (Langmuir) and the second, shown in FIG. 6c, was a 2-state reaction fit. Both fits align closely to the normalised sensorgrams. […] In addition, the Chi2 values are 0.154 and 0.0882 respectively and are within the acceptable range (<0.2) for these types of calculation. For both fits the dissociation constant (binding constant KD) was in close agreement at 5 nM and 9 nM, respectively."}}, "note": "“Also recorded” adds a separate entry of the source. Read-outs that look alike come from different tables or passages of the source."}
{"smiles": "Nc1ccc2ccccc2c1C(=O)N[C@@H](CCC(=O)O)C(=O)O", "note": "[CP006, Amino-Naphthoic Acid (ANA)-Glutamate (Glu)]", "values": [{"measurement": "substrate potential for CPG2 (in words)", "setting": "ScFV anti CEA-CPG2", "result": "Poor Substrate; also recorded: low substrate activity"}, {"measurement": "substrate potential for CPG2 (in words)", "setting": "ScFV anti CEA-CPG2; listed as formula I", "result": "not acted upon as a substrate"}, {"measurement": "IC50", "setting": "[1]", "result": 88.5, "unit": "µM"}, {"measurement": "IC50", "setting": "[1]; listed as formula I", "result": "~88.5", "unit": "µM"}, {"measurement": "inhibition of CPG2 activity (in words)", "setting": "[1]", "result": "is an inhibitor"}, {"measurement": "affinity for the active site of CPG2 (in words)", "setting": "[2]", "result": "nanomolar affinity"}]}
{"smiles": "C[C@@H](NC(=O)[C@@H](N)CO[C@H]1OC(CO)[C@H](O)C(O)C1O)C(=O)Nc1ccc2ccccc2c1C(=O)NC(CCC(=O)O)C(=O)O", "note": "(stereo partly drawn) [CP014]", "values": [{"measurement": "slope of fluorescence intensity versus time, against negative control (in words)", "setting": "ScFV anti CEA-CPG2; 12.5 and 100 μM in the plate well", "result": "no greater than that of the negative control sample"}, {"measurement": "substrate potential for CPG2 (in words)", "setting": "ScFV anti CEA-CPG2", "result": "not a substrate; also recorded: not altered or used as a substrate; also recorded: not turned over"}, {"measurement": "substrate potential for CPG2 (in words)", "setting": "ScFV anti CEA-CPG2; listed as formula II", "result": "not acted upon as a substrate"}, {"measurement": "IC50", "setting": "[1]", "result": 110, "unit": "µM"}, {"measurement": "IC50", "setting": "[1]; listed as formula II", "result": "~110", "unit": "µM"}, {"measurement": "inhibition of CPG2 activity (in words)", "setting": "[1]", "result": "inhibits CPG2 activity; also recorded: is an inhibitor"}, {"measurement": "affinity for the active site of CPG2 (in words)", "setting": "[2]", "result": "nanomolar affinity"}, {"measurement": "KA (equilibrium association constant)", "setting": "[2]; 1:1 Langmuir fit", "result": "1.98e+08", "unit": "M⁻¹"}, {"measurement": "Ka (association rate constant)", "setting": "[2]; 1:1 Langmuir fit", "result": 226000, "unit": "M⁻¹ s⁻¹"}, {"measurement": "Kd (dissociation rate constant)", "setting": "[2]; 1:1 Langmuir fit", "result": 0.00114, "unit": "s⁻¹"}, {"measurement": "Kd", "setting": "[2]; 1:1 Langmuir fit, read-out: KD (dissociation constant)", "result": 5.04, "unit": "nM"}, {"measurement": "Kd", "setting": "[2]; 1:1 Langmuir fit, read-out: dissociation constant (binding constant KD)", "result": 5, "unit": "nM"}, {"measurement": "K (equilibrium association constant)", "setting": "[2]; 2 state reaction fit", "result": "1.09e+08", "unit": "M⁻¹"}, {"measurement": "ka1", "setting": "[2]; 2 state reaction fit", "result": 284000, "unit": "M⁻¹ s⁻¹"}, {"measurement": "ka2", "setting": "[2]; 2 state reaction fit", "result": 0.014, "unit": "s⁻¹"}, {"measurement": "kd1", "setting": "[2]; 2 state reaction fit", "result": 0.0258, "unit": "s⁻¹"}, {"measurement": "kd2", "setting": "[2]; 2 state reaction fit", "result": 0.00158, "unit": "s⁻¹"}, {"measurement": "Kd", "setting": "[2]; 2 state reaction fit, read-out: dissociation constant (binding constant KD)", "result": 9, "unit": "nM"}]}
{"smiles": "Nc1nc2ncc(CNc3ccc(C(=O)N[C@@H](CCC(=O)O)C(=O)O)cc3)nc2c(=O)[nH]1", "note": "[Folic acid, reference compound]", "values": [{"measurement": "slope of fluorescence intensity versus time", "setting": "ScFV anti CEA-CPG2; 12.5 μM in well, ScFV anti CEA-CPG2 approximately 2 U/mL", "result": "approximately 4.0"}, {"measurement": "substrate potential for CPG2 (in words)", "setting": "ScFV anti CEA-CPG2", "result": "positive controls"}]}
{"smiles": "CN(Cc1cnc2nc(N)nc(N)c2n1)c1ccc(C(=O)N[C@@H](CCC(=O)O)C(=O)O)cc1", "note": "[methotrexate, reference compound]", "values": [{"measurement": "substrate potential for CPG2 (in words)", "setting": "ScFV anti CEA-CPG2", "result": "positive controls"}]}
